Laboratory results as given in patent publication US4206217A, “3-[4-(1,3-Diazacycloalken-2-yl)-phenyl]-1,2-benzisothiazoles, their manufacture, and drugs containing these compounds” (BASF Aktiengesellschaft, priority 1977, dated 1980).
Counter-ions that a name gives are not always drawn.

Legend:
[1] = system: aconitine-induced arrhythmia; assay: animal or person; format: in vivo, rat (Sprague Dawley); settings: for ED50: Rattus norvegicus, po, read-out: Antiarrhythmic effect: effective dose ED 50%; for Maximum effect: Δ% (increase in duration of aconitine infusion): effect of the maximum nontoxic dose (215 for Examples 2 and 3; 681 for procainamide); for Maximum effect: Δ% (increase in duration of aconitine infusion) / Antiarrhythmic effect: R.E. (relative effect) / Maximum effect: R.M.E. (relative maximum effectiveness) / Effect at the maximum dose, higher than that of procainamide / Antiarrhythmic activity greater than that of procainamide: rat, oral; for Antiarrhythmic effect: R.E. (relative effect) / Maximum effect: R.M.E. (relative maximum effectiveness): procainamide = 1.00; for Antiarrhythmic effect: R.E. (relative effect): effective dose; for Effect at the maximum dose, higher than that of procainamide / Antiarrhythmic activity greater than that of procainamide: versus procainamide
Method: The antiarrhythmic activity of the compounds was determined by orally administering these to rats (Sprague Dawley, weight: 180-240 g) 45 minutes before the start of narcosis (100 mg/kg of thiobutabarbital, administered intraperitoneally).
The arrhythmogenous substance used was aconitine, administered by intravenous infusion (at the rate of 0.005 mg/kg.minute) 60 minutes after administration of the compound of the invention.
For a quantitative evaluation of the linear relation between the logarithm of the dose (mg/kg) of the test substances and the relative increase in the duration of infusion of aconitine (Δ%), the dose which increases the duration of infusion by 50% (ED 50%) was determined.

[2] = in vivo; settings: mouse, in vivo; for LD50 at 168 h: ip
Method: (§1) The acute toxicity was determined on groups of 10 or 20 female Swiss mice weighing 20-26 g, using intraperitoneal administration. The LD 50 was calculated (Probit analysis) as the dose following which 50% of the animals died within 7 days.

[3] = system: female Swiss mice; assay: in vivo; settings: versus procainamide
Method: as §1

[4] = system: isolated auricle; assay: Stimulation time/tension relationship (isolated auricle)
Text: In test models used in respect of the antiarrhythmic effect, the following findings were obtained: Stimulation time/tension relationship (isolated auricle): […]

[5] = system: ventricular fibrillation threshold; assay: Ventricular fibrillation threshold in guinea pigs; format: in vivo, guinea pig; settings: intravenous administration
Text: Ventricular fibrillation threshold in guinea pigs:

Row | SMILES | ED50 [1] | Maximum effect: Δ% (increase in duration of aconitine infusion) [1] | Antiarrhythmic effect: R.E. (relative effect) [1] | Maximum effect: R.M.E. (relative maximum effectiveness) [1] | Effect at the maximum dose, higher than that of procainamide [1] | Antiarrhythmic activity greater than that of procainamide [1] | selectivity ratio [2] | LD50 at 168 h [2] | Therapeutic range (LD 50 / ED 50%) greater than for procainamide [3] | Stimulation time/tension relationship, effect relative to quinidine [4] | Ventricular fibrillation threshold, effect relative to quinidine [5]
1 | c1ccc2c(-c3ccc(C4=NCCCN4)cc3)nsc2c1 [Example 2, 3-[4-(Tetrahydropyrimidin-2-yl)-phenyl]-1,2-benzisothiazole hydrochloride] | 31.2 mg/kg | 289% | 5.03 | 2.14 | 114% | about 5 times | 4.03 | 126 mg/kg | 4 times | 1.24 times the effect of quinidine | 1.8 times the effect of quinidine
2 | CC1CN=C(c2ccc(-c3nsc4ccccc34)cc2)N1 (stereo not drawn) [Example 3, 3-[4-(Methylimidazolin-2-yl)-phenyl]-1,2-benzisothiazole hydrochloride] | 32.7 mg/kg | 233% | 4.80 | 1.73 | 73% | about 5 times | 2.76 | 90.5 mg/kg | 2.8 times | 1.5 times the effect of quinidine | 
3 | CCN(CC)CCNC(=O)c1ccc(N)cc1 [Procainamide, procainamide, reference compound] | 157 mg/kg | 135% |  |  |  |  |  | 227 mg/kg |  |  | 
